ChEMBL document CHEMBL1201862, “PubChem BioAssay data set” (2004)
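Protocol summary: plate cells (96-well), add compound at 5 concentrations, incubate 48 h, interpolate endpoints linearly. The concentration for 50% growth inhibition is given as GI50.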 The source made the active and inactive calls. No stated cut-off is given here; in the data, active = GI50 up to about 1.1 µM and inactive = higher.

Key:
Test in all cases: NCI anticancer screen, dose series, 48 h
[1] = system: A498
[2] = system: BT-549
[3] = system: CAKI-1
[4] = system: DU-145
[5] = system: HCT-116
[6] = system: HT-29
[7] = system: K562
[8] = system: M14
[9] = system: MDA-MB-231
[10] = system: MDA-N
[11] = system: NCI-H23
[12] = system: PC-3
[13] = system: RXF 393
[14] = system: SF-295
[15] = system: SF-539
[16] = system: SK-MEL-5
[17] = system: SW-620
[18] = system: HL-60
[19] = system: HCC 2998

Measured: GI50

CCOP(=O)(CN1CCNCCN(CP(=O)(OCC)OCC)CC1)OCC
inactive: [1] > 100 µM | [2] > 100 µM | [3] > 100 µM | [4] > 100 µM | [5] > 100 µM | [6] > 100 µM | [7] > 100 µM | [8] > 100 µM | [9] > 100 µM | [10] > 100 µM | [11] > 100 µM | [12] > 100 µM | [13] > 100 µM | [14] > 100 µM | [15] > 100 µM | [16] > 100 µM | [17] > 100 µM

CCOc1cc(NC(C)=O)ccc1C(=O)NN1C(=O)C(Oc2ccccc2)C1c1ccc(O)c(OC)c1 (centres undefined)
inactive: [2] 28.4 µM | [3] 54.8 µM | [4] 78 µM | [5] 52.4 µM | [18] 19.8 µM | [6] 36.7 µM | [7] 31.3 µM | [8] 52.1 µM | [9] 34 µM | [10] 33.6 µM | [11] 30.8 µM | [12] 35.2 µM | [13] 24.3 µM | [14] 66.4 µM | [15] 28.1 µM | [16] 19.1 µM | [17] 77.4 µM

[N-]=[N+]=NC[C@H]1OCO[C@H](CN=[N+]=[N-])[C@@H](OCCOCCCl)[C@@H]1OCCOCCCl
inactive: [2] > 100 µM | [3] > 100 µM | [4] > 100 µM | [19] > 100 µM | [5] > 100 µM | [18] > 100 µM | [6] > 100 µM | [7] > 100 µM | [8] > 100 µM | [9] > 100 µM | [10] > 100 µM | [11] > 100 µM | [12] > 100 µM | [13] 5.66 µM | [14] > 100 µM | [15] > 100 µM | [16] 57 µM | [17] > 100 µM

Fc1nc(-c2c3ccccc3c3sc4ccccc4n23)nc(N2CCOCCOCCOCCOCC2)n1
inactive: [1] 91.4 µM | [2] 87.1 µM | [3] > 100 µM | [4] > 100 µM | [19] > 100 µM | [5] 62.4 µM | [6] 46.6 µM | [7] > 100 µM | [8] > 100 µM | [9] 86.9 µM | [10] > 100 µM | [11] > 100 µM | [12] > 100 µM | [13] 18.5 µM | [14] 63 µM | [15] 21.6 µM | [16] > 100 µM | [17] > 100 µM

CN(C)CCNC1=CC(=O)c2nc3ccccc3c3ccnc1c23
inactive: [2] 7.26 µM | [3] 4.02 µM | [4] 8.2 µM | [19] 4.47 µM | [5] 2.88 µM | [18] 3.83 µM | [6] 2.58 µM | [7] 1.19 µM | [8] 7.6 µM | [9] 3.63 µM | [10] 7.78 µM | [11] 5.56 µM | [12] 3.36 µM | [14] 4.47 µM | [15] 3.98 µM | [17] 4.42 µM

COc1cc(NC(C)=O)ccc1C(=O)N/N=C/c1ccc(Cl)cc1Cl
inactive: [1] 24.1 µM | [2] > 100 µM | [3] 39.6 µM | [4] 26.3 µM | [19] 57.1 µM | [5] 80.5 µM | [18] 46.6 µM | [6] > 100 µM | [7] 50.2 µM | [8] 48.1 µM | [10] 23.6 µM | [11] 71.9 µM | [12] 34.8 µM | [13] 20.7 µM | [14] 57 µM | [15] 87.7 µM | [16] 77.3 µM | [17] > 100 µM

CC(=O)C(=NNc1ccc(-n2c(C)nc3ccc(Br)cc3c2=O)cc1)C(C)=O
inactive: [1] > 100 µM | [2] > 100 µM | [3] > 100 µM | [4] 93.8 µM | [5] 88.3 µM | [18] > 100 µM | [6] > 100 µM | [7] > 100 µM | [8] > 100 µM | [9] 37.2 µM | [10] > 100 µM | [11] 70.8 µM | [12] 73.8 µM | [14] 98.6 µM | [15] 47.3 µM | [16] 65.6 µM | [17] > 100 µM

Cc1cc2[nH]c3[nH]c(=O)[nH]c(=O)c3c2cc1C
inactive: [1] > 100 µM | [2] > 100 µM | [3] > 100 µM | [4] > 100 µM | [19] > 100 µM | [5] > 100 µM | [18] > 10 µM | [6] > 100 µM | [8] > 100 µM | [9] 24.4 µM | [10] > 100 µM | [11] > 100 µM | [13] > 100 µM | [14] > 100 µM | [15] > 100 µM | [16] 47.1 µM | [17] > 100 µM

Nc1ncnc2c1ncn2[C@@H]1C[C@@H]1CO
inactive: [1] > 100 µM | [2] > 100 µM | [19] > 100 µM | [5] > 100 µM | [18] > 100 µM | [6] > 100 µM | [7] > 100 µM | [9] > 100 µM | [10] > 100 µM | [11] > 100 µM | [12] > 100 µM | [14] > 100 µM | [15] > 100 µM | [17] > 100 µM

CCOC(=O)c1nnsc1NC(=O)Nc1ccc(Cc2ccc(NC(=O)Nc3snnc3C(=O)OCC)cc2)cc1
inactive: [2] > 100 µM | [3] 41 µM | [4] 32.8 µM | [19] > 100 µM | [5] 30.8 µM | [6] 61 µM | [7] > 100 µM | [8] > 100 µM | [9] 28.2 µM | [10] 69.3 µM | [11] 43.6 µM | [12] 66.4 µM | [13] 18.2 µM | [14] 70 µM | [16] 29.6 µM | [17] > 100 µM

N=C(N)Nc1nc2cc([N+](=O)[O-])ccc2[nH]1
inactive: [1] 27 µM | [2] 48.1 µM | [3] > 100 µM | [4] > 100 µM | [5] > 100 µM | [18] > 100 µM | [6] > 100 µM | [7] 93.5 µM | [8] > 100 µM | [9] > 100 µM | [10] > 100 µM | [11] 68.7 µM | [12] 81.1 µM | [13] 58.9 µM | [14] 66.2 µM | [15] 56.6 µM | [16] 83 µM | [17] > 100 µM

CC(C)(C)c1ccc(-c2nc3ccccc3c(=O)o2)cc1
inactive: [1] 71.6 µM | [2] 24.2 µM | [3] 86.3 µM | [4] 59.7 µM | [19] 54.8 µM | [5] 38.7 µM | [18] 23.1 µM | [6] 42 µM | [7] 35.6 µM | [8] 42.3 µM | [10] 41.2 µM | [11] 34.3 µM | [12] 38.4 µM | [13] 95.9 µM | [14] 23.8 µM | [15] 40.6 µM | [16] 17 µM | [17] 48.2 µM
